From patent EP4467141A1, “PYRAZOLO-QUINOLINES AS SELECTIVE INHIBITORS OF GENOTOXIC STRESS-INDUCED IKK/NF- KB PATHWAYS FOR CANCER THERAPY” (Max-Delbrück-Centrum für Molekulare Medizin in der …, priority 2023, dated 2024)

System: p65 nuclear translocation
Assay: HCS counter-screen: TNFα-induced p65 nuclear translocation in U2-OS cells
Type: cell-based
Procedure: Fig.1: Identification of inhibitors specific for DNA damage-induced NF-κB activity. (A) Flowchart representing the high-throughput chemical library screening. A screen/counter-screen strategy was used by stimulating NF-κB in U2-OS cells with etoposide (50 µM for 90 min) and hits were counter-screened with TNFα (10 ng/ml for 20 min). Cells were pre-treated with compounds (10 µM) for 1 hour before stimulation, fixed, and percent p65 nuclear translocation measured by fluorescence microscopy. IC50 values were used for final selection. (B) Comparison of mean p65 nuclear translocation following either etoposide or TNFa stimulation after treatment with each counter-screened hit compound. Values were normalized to etoposide or TNFα positive controls. Specific inhibitors (red) of DNA damage-induced NF-κB signaling were defined by setting cut-off criteria (black line). […] (E) Western blot analysis (top) and quantification (bottom) of NF-κB subunit p65 phosphorylation (S536) following 1-hour pre-treatment with DMSO, MW01 (10 µM), or MW05 (10 µM), in unstimulated, after 90 min irradiation (IR, 20 Gy), or after 20 min TNFα (10 ng/mL) conditions in U2- OS cells. […]
To identify inhibitors that selectively prevent DNA damage-induced NF-κB activation, we established a high-throughput screening platform quantifying p65 nuclear translocation, an essential step in NF-κB activation (Hayden and Ghosh, 2008). […]

SMILES | TNFα stimulated IC50 of p65 nuclear translocation
COc1ccc2c(c1OC)c(=O)n1c3ccc(O)cc3c3ccnc2c31 [MW01, 5-Hydroxy-10,11-dimethoxy-9H-benzo[c]indolo[3,2,1-ij][1,5]naphthyridin-9-one] | out of range
COc1ccc2cc3c(N)nn(C(=O)c4cccc(N(C)C)c4)c3nc2c1 [MW05, (3-Amino-7-methoxypyrazolo[3,4-b]quinolin-1-yl)-[3-(dimethylamino)phenyl]methanone] | out of range
